Experimental data from the supplement of paper PMC11061612.

Assays:
[1] = tested on: Ca-Ski (Cervical Carcinoma); assay: Bliss excess, mean over the matrix (fraction); higher = more synergy
Summary of the method: (§1)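 Cell lines in DMEM/F12 or RPMI with 10% FBS were plated in 1536-well plates, held 24 hours at 37°C, 5% CO2, then given two-drug dose matrices for 72 hours (DMSO typically 0.2%). Viability was read by CellTiter-Glo 2.0 luminescence and scaled as inhibition from 0 (vehicle wells) to 1 (blank wells). Combination Emax is the second-highest inhibition in the matrix; Bliss excess is observed combination effect minus expected EA + EB − EA·EB, EA and EB being single-agent effects.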

[2] = tested on: DU-145 (Prostate Carcinoma); assay: as above
Summary of the method: as §1

[3] = tested on: EFO-21 (Ovarian Carcinoma); assay: as above
Summary of the method: as §1

[4] = tested on: KGN (Other Solid Carcinomas); assay: as above
Summary of the method: as §1

[5] = tested on: KMRC-1 (Kidney Carcinoma); assay: as above
Summary of the method: as §1

[6] = tested on: MDA-MB-453 (Breast Carcinoma); assay: as above
Summary of the method: as §1

[7] = tested on: MOG-G-UVW (Low Grade Glioma); assay: as above
Summary of the method: as §1

[8] = tested on: MOLT-4 (T-Lymphoblastic Leukemia); assay: as above
Summary of the method: as §1

[9] = tested on: Mo-T (Other Blood Carcinomas); assay: as above
Summary of the method: as §1

[10] = tested on: NCI-H1355 (Lung Adenocarcinoma); assay: as above
Summary of the method: as §1

[11] = tested on: NCI-H1993 (Lung Adenocarcinoma); assay: as above
Summary of the method: as §1

[12] = tested on: NCI-H522 (Lung Adenocarcinoma); assay: as above
Summary of the method: as §1

[13] = tested on: OE33 (Esophageal Adenocarcinoma); assay: as above
Summary of the method: as §1

[14] = tested on: SK-N-AS (Neuroblastoma); assay: as above
Summary of the method: as §1

[15] = tested on: SKN (Other Solid Carcinomas); assay: as above
Summary of the method: as §1

[16] = tested on: SW872 (Other Solid Carcinomas); assay: as above
Summary of the method: as §1

[17] = tested on: MV-4-11 (Acute Myeloid Leukemia); assay: combination Emax (second highest fraction inhibited in the dose matrix, 72 h); higher = more inhibition; extreme values may be limits of the assay
Summary of the method: as §1

[18] = tested on: NCI-H1355 (Lung Adenocarcinoma); assay: as above
Summary of the method: as §1

[19] = tested on: SK-N-AS (Neuroblastoma); assay: as above
Summary of the method: as §1

[20] = tested on: SW982 (Other Solid Carcinomas); assay: as above
Summary of the method: as §1
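Throughout, for Bliss excess, mean over the matrix: after 72 h of two-drug dosing.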

Row | Structure (SMILES) | Bliss excess [1] | Bliss excess [2] | Bliss excess [3] | Bliss excess [4] | Bliss excess [5] | Bliss excess [6] | Bliss excess [7] | Bliss excess [8] | Bliss excess [9] | Bliss excess [10] | Bliss excess [11] | Bliss excess [12] | Bliss excess [13] | Bliss excess [14] | Bliss excess [15] | Bliss excess [16] | combination Emax [17] | combination Emax [18] | combination Emax [19] | combination Emax [20]
1 | CN(CCO)CC[C@H](CSc1ccccc1)Nc1ccc(S(=O)(=O)NC(=O)c2ccc(N3CCC([C@@H](O)c4ccccc4-c4ccc(Cl)cc4)CC3)cc2)cc1S(=O)(=O)C(F)(F)F [AZD4320] + C1CN(CCC1(C(=O)N[C@@H](CCO)C2=CC=C(C=C2)Cl)N)C3=NC=NC4=C3C=CN4 [Capivasertib] (first compound max 1 µM, 7x7, partner max 3 µM) | 0.0249 | -0.0342 | -0.0827 | -0.0839 | 0.0094 | -0.0534 | -0.0318 | 0.0173 | -0.0137 | -0.0648 | -0.0592 | -0.034 | -0.0575 | -0.0397 | -0.0279 | -0.0237 | 1 | 0.239 | 0.172 | 0.278
2 | CN(CCO)CC[C@H](CSc1ccccc1)Nc1ccc(S(=O)(=O)NC(=O)c2ccc(N3CCC([C@@H](O)c4ccccc4-c4ccc(Cl)cc4)CC3)cc2)cc1S(=O)(=O)C(F)(F)F [AZD4320] + CC(=O)O[C@H]1C(=O)[C@@]2(C)[C@H]([C@H](OC(=O)c3ccccc3)[C@]3(O)C[C@H](OC(=O)[C@H](O)[C@@H](NC(=O)c4ccccc4)c4ccccc4)C(C)=C1C3(C)C)[C@]1(OC(C)=O)CO[C@@H]1C[C@@H]2O [Paclitaxel] (first compound max 1 µM, 7x7, partner max 3 µM) | 0.114 | 0.0406 | 0.0978 | 0.0039 | 0.0095 | 0.249 | -0.0104 | 0.0099 | 0.163 | 0.0513 | 0.0851 | 0.0246 | 0.0836 | 0.0584 | 0.13 | -0.0047 | 1 | 0.984 | 0.884 | 1
3 | CN(CCO)CC[C@H](CSc1ccccc1)Nc1ccc(S(=O)(=O)NC(=O)c2ccc(N3CCC([C@@H](O)c4ccccc4-c4ccc(Cl)cc4)CC3)cc2)cc1S(=O)(=O)C(F)(F)F [AZD4320] + CCN(CCO)CCCOc1ccc2c(Nc3cc(CC(=O)Nc4cccc(F)c4)[nH]n3)ncnc2c1 [AZD2811] (first compound max 1 µM, 7x7, partner max 1 µM) | 0.119 | -0.0341 | -0.0616 | -0.0739 | -0.0359 | 0.0154 | 0.03 | 0.0322 | -0.003 | -0.0133 | -0.0043 | -0.0471 | -0.0398 | -0.0041 | 0.0383 | -0.0215 | 1 | 0.239 | 0.391 | 0.814
4 | CN(CCO)CC[C@H](CSc1ccccc1)Nc1ccc(S(=O)(=O)NC(=O)c2ccc(N3CCC([C@@H](O)c4ccccc4-c4ccc(Cl)cc4)CC3)cc2)cc1S(=O)(=O)C(F)(F)F [AZD4320] + C[C@@H]1COCCN1C2=NC(=NC(=C2)C3(CC3)[S@](=N)(=O)C)C4=C5C=CNC5=NC=C4 [AZD6738] (first compound max 1 µM, 7x7, partner max 10 µM) | -0.006 | -0.0335 | -0.0312 | -0.0198 | -0.0358 | -0.0453 | -0.0396 | -0.0084 | 0.0358 | -0.0273 | -0.0073 | -0.0555 | -0.0295 | -0.0421 | -0.0394 | -0.039 | 1 | 0.77 | 0.949 | 0.886
5 | CN(CCO)CC[C@H](CSc1ccccc1)Nc1ccc(S(=O)(=O)NC(=O)c2ccc(N3CCC([C@@H](O)c4ccccc4-c4ccc(Cl)cc4)CC3)cc2)cc1S(=O)(=O)C(F)(F)F [AZD4320] + C[C@@H](Nc1cc(F)cc(F)c1)c1cc(C(=O)N(C)C)cc2c(=O)cc(N3CCOCC3)oc12 [AZD8186] (first compound max 1 µM, 7x7, partner max 3 µM) | 0.0605 | -0.0296 | 0.0323 | 0.0014 | -0.0007 | 0.02 | -0.086 | -0.0129 | 0.0075 | 0.0082 | 0.0156 | -0.0481 | -0.0082 | 0.0214 | 0.0522 | 0.0462 | 1 | 0.34 | 0.406 | 0.928
6 | CN(CCO)CC[C@H](CSc1ccccc1)Nc1ccc(S(=O)(=O)NC(=O)c2ccc(N3CCC([C@@H](O)c4ccccc4-c4ccc(Cl)cc4)CC3)cc2)cc1S(=O)(=O)C(F)(F)F [AZD4320] + Cc1cc2ncnn2cc1Nc1ncc2c(n1)n(C1CCOCC1)c(=O)n2C [AZD7648] (first compound max 1 µM, 7x7, partner max 10 µM) | -0.0243 | -0.0355 | -0.0461 | -0.103 | -0.0618 | -0.0409 | -0.0412 | 0.0422 | -0.0057 | -0.052 | -0.0205 | -0.0351 | -0.0489 | -0.0399 | -0.0249 | -0.0262 | 1 | 0.269 | 0.182 | 0.371
7 | CN(CCO)CC[C@H](CSc1ccccc1)Nc1ccc(S(=O)(=O)NC(=O)c2ccc(N3CCC([C@@H](O)c4ccccc4-c4ccc(Cl)cc4)CC3)cc2)cc1S(=O)(=O)C(F)(F)F [AZD4320] + Cn1cnc2c(F)c(Nc3ccc(Br)cc3Cl)c(C(=O)NOCCO)cc21 [Selumetinib] (first compound max 1 µM, 7x7, partner max 3 µM) | 0.0763 | 0.0057 | -0.0084 | 0.0113 | 0.0167 | -0.0218 | -0.0034 | 0.0365 | 0.0434 | 0.0529 | -0.0307 | -0.0181 | 0.0249 | -0.0204 | -0.0209 | 0.0556 | 1 | 0.368 | 0.776 | 0.844
8 | CN(CCO)CC[C@H](CSc1ccccc1)Nc1ccc(S(=O)(=O)NC(=O)c2ccc(N3CCC([C@@H](O)c4ccccc4-c4ccc(Cl)cc4)CC3)cc2)cc1S(=O)(=O)C(F)(F)F [AZD4320] + Nc1ccn([C@@H]2O[C@H](CO)[C@@H](O)C2(F)F)c(=O)n1 [Gemcitabine] (first compound max 1 µM, 7x7, partner max 0.3 µM) | 0.0469 | -0.033 | 0.0353 | -0.0204 | 0.0287 | 0.0093 | -0.0147 | -0.0209 | 0.114 | -0.0349 | -0.0164 | -0.0645 | -0.0527 | 0.0011 | 0.0198 | 0.0199 | 1 | 0.406 | 0.672 | 1
9 | Cc1c2c(nn1C)CSCc1cc(n(C)n1)CSc1cc(c3ccccc3c1)OCCCc1c(C(=O)O)n(C)c3c-2c(Cl)ccc13 [AZD5991] + Cn1cnc2c(F)c(Nc3ccc(Br)cc3Cl)c(C(=O)NOCCO)cc21 [Selumetinib] (first compound max 1 µM, 7x7, partner max 3 µM) | 0.0502 | 0.003 | -0.0248 | -0.0338 | -0.0396 | 0.0055 | -0.0869 | 0.0167 | -0.0167 | -0.0258 | 0.0043 | -0.0194 | – | -0.0277 | -0.0276 | -0.003 | 1 | 0.316 | 0.876 | 0.377
10 | Cc1cc2ncnn2cc1Nc1ncc2c(n1)n(C1CCOCC1)c(=O)n2C [AZD7648] + C=CCn1c(=O)c2cnc(Nc3ccc(N4CCN(C)CC4)cc3)nc2n1-c1cccc(C(C)(C)O)n1 [AZD1775] (first compound max 10 µM, partner max 1 µM) | -0.0255 | -0.0341 | 0.0175 | -0.0266 | 0.0051 | -0.0223 | -0.0301 | 0.0141 | -0.14 | -0.0276 | -0.0167 | 0.0181 | 0.0062 | 0.0212 | -0.0103 | 0.0554 | 0.954 | 0.672 | 0.949 | 0.825
11 | Cc1cc2ncnn2cc1Nc1ncc2c(n1)n(C1CCOCC1)c(=O)n2C [AZD7648] + CCN(CCO)CCCOc1ccc2c(Nc3cc(CC(=O)Nc4cccc(F)c4)[nH]n3)ncnc2c1 [AZD2811] (first compound max 10 µM, 7x7, partner max 1 µM) | 0.0387 | -0.0078 | -0.0061 | -0.0649 | 0.0039 | -0.0013 | -0.027 | 0.009 | -0.0582 | -0.0401 | 0.0171 | 0.0156 | -0.0315 | -0.0011 | -0.033 | 0.0723 | 0.945 | 0.519 | 0.46 | 0.621
12 | Cc1cc2ncnn2cc1Nc1ncc2c(n1)n(C1CCOCC1)c(=O)n2C [AZD7648] + CN(C)CCCOc1ccc(-c2ccc3ncc4c(c3c2)n(C2CCOCC2)c(=O)n4C)cn1 [AZD0156] (first compound max 10 µM, 7x7, partner max 1 µM) | 0.0424 | -0.0142 | -0.0063 | -0.0424 | 0.0106 | 0.0257 | 0.0206 | 0.0068 | -0.122 | -0.033 | -0.0225 | -0.0127 | 0.0005 | -0.008 | 0.0229 | 0.0713 | 0.484 | 0.482 | 0.245 | 0.36
13 | N#Cc1cnc(Nc2cc(NC[C@H]3CNCCO3)c(C(F)(F)F)cn2)cn1 [SRA737] + C=CCn1c(=O)c2cnc(Nc3ccc(N4CCN(C)CC4)cc3)nc2n1-c1cccc(C(C)(C)O)n1 [AZD1775] (first compound max 10 µM, partner max 1 µM) | 0.117 | -0.0105 | – | 0.0807 | -0.0048 | 0.0927 | 0.0652 | 0.12 | -0.0097 | -0.0046 | 0.194 | -0.0295 | 0.0063 | 0.0512 | -0.0293 | 0.0756 | 0.931 | 0.633 | 0.811 | 0.759
